Source: patent publication US20240418704A1, “EPIGENETIC TARGETS IN CLONAL HEMATOPOIESIS” (Memorial Sloan-Kettering Cancer Center, priority 2021, published 2024)

System: HSPCs co-cultured with BMECs
Test: BMEC co-culture system: cell-type specific differentiation readout in response to small molecules
Assay type: cell-based, murine
Conditions: Cd11b+Gr1+, Lin neg, GMP, MEP and LSK cells after contacting the cells with the agent, FIGS. 4A-4C
Description: FIGS. 4A-4C. BMEC co-culture system can be used to readout cell-type specific dependencies in response to small molecules and single guide RNAs (sgRNAs).
A platform was adopted whereby primary murine HSPCs are co-cultured with bone marrow endothelial cells that allow for maintenance and expansion of HSPCs (FIG. 1). […] Thus, the adopted HSPC-BMEC co-culture platform is a robust system to study genetically defined murine HSPCs with CH genomic modifications.

Cc1nc(Nc2ncc(C(=O)Nc3c(C)cccc3Cl)s2)cc(N2CCN(CCO)CC2)n1 [Dasatanib]
effect on differentiation (percentage of heme-expression and cell differentiation): inhibits differentiation
